Results on 26 molecules are retold here after patent US6686345B2, “DNA-cleaving antitumor agents” (Research Development Foundation, priority 1998, dated 2004).

The subject of data set [1] is supercoiled ΦX174 plasmid DNA. The data set can be described thus: DNA cleavage by 2-alkynyl pyridinium triflate salts. It counts as biochemical, ΦX174 Phage. To be noted: for Normalized Percent Cleavage of ΦX174 Phage (RF-1) DNA: 24 hrs at 37° C., pH 8.0; for DNA cleavage (in words): pyridinium series. The procedure: (§1) The normalized percent cleavage of DNA is determined as: [formula]
The DNA cleavage efficiency of these azaenediyne heterocycles was determined by incubation with aqueous solutions of supercoiled ΦX174 plasmid DNA. The supercoiled DNA was diluted to 50 μM bp in 50 mM TRIS pH 8.0. The reaction mixtures containing compound and 13% v/v DMSO-d6 were incubated for 24 hrs at 37° C. DNA topoisomers were separated by agarose gel electrophoresis (1 X TBE, 90V, 1 hr), stained with ethidium bromide (0.25 μg/mL), and the images were analyzed on a fluorimager. DNA cleavage results are reported as normalized percent cleavage in Table 7 as for the thiazolium and benzothiazolium salts in Example 8.

The test system of another data set is A549 cancer cells. The data set is described as follows: In vitro cancer cell cytotoxicity of pyridinium salts, A549. To be noted: for IC50: Homo sapiens, A549 cells, growth inhibition. It counts as cell-based. The text has this: (§2) The 2-ethynyl-1-prop-2-ynyl-pyridinium triflate salt has less activity in the in vitro cytotoxicity assay, perhaps due to the instability of this compound in nucleophilic solvents. The IC50 (50% Inhibition Concentration) is defined as the test compound concentration where the increase from time 0 in the number or mass of treated cells is only 50% as much as the corresponding increase in the vehicle-control at the end of experiment.

The next data set concerns MCF-7 cancer cells. The data set is described as follows: In vitro cancer cell cytotoxicity of pyridinium salts, MCF-7. The class given is cell-based. To be noted: for IC50: Homo sapiens, MCF7, MCF-7 cells, growth inhibition.
Excerpt: as §2

For the next data set, the system named is supercoiled plasmid DNA. The data set can be described thus: DNA cleavage of supercoiled plasmid DNA by aza-enediyne heterocycles (thiazolium and benzothiazolium salts). The class given is biochemical. To be noted: for DNA Cleavage 1 mM: 1 mM compound; for DNA Cleavage 1 mM / DNA Cleavage 100 μM: 50 μM bp DNA, TRIS pH 8.0, 24 hrs at 37° C.; for DNA Cleavage 100 μM: 100 μM compound. The procedure:
The DNA cleavage efficiency of aza-enediyne heterocycles is determined by incubating the azaenediynes with supercoiled plasmid DNA. The supercoiled DNA was diluted to 50 μM bp in 50 mM TRIS buffer at pH 8.0. […] DNA topoisomers were separated by electrophoresis (0.8% agarose, 1× TBE, 82V, 1 hr 10 min) and stained with ethidium bromide (0.25 μg/mL) and images were analyzed by phosphorimger.
as §1
DNA cleavage normalized for the small amount (10-25%) of nicked relaxed DNA in control samples (DMSO-only treated DNA) is reported in Table 6.

The nature of data set [2]: Stability of heterocyclic salts in methanol (CD3OD) monitored by NMR. To be noted: solution in CD3OD monitored by NMR.
Excerpt: The stability of solutions of these salts in CD3OD can be monitored by NMR.
The subject of a further data set is Supercoiled DNA. The data set can be described thus: DNA cleavage by heterocyclic variants (KeAZB series). The class given is biochemical. The procedure:
The gel depicted in FIG. 3 represents the results of the DNA cleavage experiment with KeAZB002. Supercoiled DNA (50 uM in 50 mM TRIS phosphate buffer, pH 8) was incubated with 0 (lanes 1, 5), 1 (lanes 2, 6), 100 (lanes 3, 7), or 1000 (lane 4) uM of KeAZB002 for 24 hours at 20° C. Samples for lanes 5-8 were loaded onto the agarose gel, whereas samples for lanes 1-4 were heated at 70° C. for 90 sec. prior to loading onto the gel. After electrophoresis at 60 V for 2 hrs, the DNA products were visualized with ethidium bromide staining and UV transillumination.

Data set [3] can be described thus: Thermal isomerization (aza-Bergman rearrangement) of C,N-dialkynylimine. To be noted: slower than 5a to 7a. The class given is physicochemical. The text has this:
A general synthetic route to C,N-dialkynylimines (3-aza-enediynes) 5a,b is depicted in FIG. 1. These imines are isolated as air stable yellow oils after chromatography. When a benzene solution of 5a is heated under reflux overnight, nitrile 7a is produced in 88% yield (FIG. 2). The nitrile 7a is isolated as a single stereoisomer, which is assigned the (Z)-geometry by comparison with authentic (E)-7a. Authentic (E)-7a was synthesized by the palladium-catalyzed coupling of 1-propynyltributyltin and the (E)-enol triflate of 2-cyano-2-phenylacetophenone. Heating a solution of imine 5a in benzene containing a large excess of 1,4-cyclohexadiene (1,4-chd) as a hydrogen atom trap, or in neat 1,4-chd at 150° C. for two hours affords the nitrile 7a as the only isolable product. The imine 5b contains a pendent double bond that could serve as an intramolecular trap for the putative diradical intermediate 6 (FIG. 2). We find that heating a benzene solution of 5b containing a large excess of 1,4-chd affords only the nitrile 7b in nearly quantitative yield. In none of these reactions were any products (e.g. 8 or 10) which would arise from trapping of the 2,5-ddp intermediate 6 detected.
The ^t½ for the Bergman cyclization of the corresponding (Z)-1,6-diphenylhex-3-ene-1,5-diyne to o-terphenyl is about 1000-fold slower than the rearrangement of 5a to 7a.

The structures appear in SMILES notation.

Consider `C#CC[n+]1ccccc1CCc1ccccc1` [drawing 128, 1-prop-2-ynyl-2-phenethyl-pyridinium triflate], for which the “Normalized Percent Cleavage of ΦX174 Phage (RF-1) DNA” value (“Normalized Percent Cleavage” for short) in data set [1] (1 μM) turned out to be 2%; in data set [1] (10 μM) it was 4%; in data set [1] (50 μM), 10%; in data set [1] (100 μM), 13%. For the same molecule, the “DNA cleavage (in words)” value in data set [1] (ΦX174 DNA) is “does not cleave DNA to any appreciable extent”.

Broadly, the IC50 is the point on the concentration scale where inhibition reaches its midpoint. As for `C#CC[n+]1ccccc1CCc1ccccc1` [drawing 133], the IC50 was 11 µM in the data set with A549 cancer cells and 23 µM in the data set on MCF-7 cancer cells.

As to `C#CC[n+]1ccsc1C#Cc1ccccc1` [drawing 121], the “Normalized Cleavage (%)” value with supercoiled plasmid DNA (Concentration 25 μM) is recorded as 37.31%; in the data set with supercoiled plasmid DNA (Concentration 50 μM), 56.84%; in the data set on supercoiled plasmid DNA (Concentration 100 μM), 67.29%; in the data set on supercoiled plasmid DNA (Concentration 250 μM) it was 92.79%.

`C#CC[n+]1c(C#C[Si](C(C)C)(C(C)C)C(C)C)sc2ccccc21`: the “DNA Cleavage 1 mM” value in the data set on supercoiled plasmid DNA is reported as 0%.

With `C#CC[n+]1ccccc1C#Cc1ccc(C(F)(F)F)cc1` [drawing 131], the IC50 with A549 cancer cells amounted to 9.8 µM; with MCF-7 cancer cells it was 10 µM.

`C#CC[n+]1c(C#Cc2ccc(C)cc2)sc2ccccc21`: in data set [2], the “Stability in MeOH (Initial Decomposition)” value (“Stability in MeOH” below) fell in the range of 0.333 to 0.5 h. Also, the “DNA Cleavage 1 mM” value with supercoiled plasmid DNA stood at 100%.

For the molecule `C#CC[n+]1c(C#Cc2ccccc2)sc2ccccc21`, the “Stability in MeOH” value in data set [2] is “˜30 min”. Besides, in the data set with supercoiled plasmid DNA, the “DNA Cleavage 100 μM” value is 46% and the “DNA Cleavage 1 mM” value is on record as 100%.

For `C#CC[n+]1ccccc1C#Cc1ccc(C(F)(F)F)cc1` [drawing 124, 1-prop-2-ynyl-2[(4-trifluoromethylphenyl)-ethynyl]-pyridinium triflate], the “Normalized Percent Cleavage” value in data set [1] (1 μM) turned out to be 0.9%; in data set [1] (10 μM), 33%; in data set [1] (50 μM) it was 78%; in data set [1] (100 μM), 90%.

As to `C#CC[n+]1ccccc1C#Cc1ccccc1` [drawing 129], the concentration for half-maximal inhibition (IC50) in the data set with A549 cancer cells turned out to be 3.3 µM; in the data set with MCF-7 cancer cells, 3.1 µM.

As to `C[n+]1ccsc1C#Cc1ccccc1`, in the data set with supercoiled plasmid DNA, the “DNA Cleavage 1 mM” value is given as 27%.

As for `C#CC[n+]1c(-c2ccccc2)c(-c2ccccc2)n(C)c1C#Cc1ccccc1`, the “Stability in MeOH” value in data set [2] was over 24 h. Moreover, in the data set with supercoiled plasmid DNA, the “DNA Cleavage 100 μM” value came out at 1.4% and the “DNA Cleavage 1 mM” value is 10%.

Regarding `C(#Cc1nccs1)c1ccccc1`, the “Stability in MeOH” value in data set [2] is over 24 h. Moreover, the “DNA Cleavage 1 mM” value with supercoiled plasmid DNA amounted to 1.5%.

As for `C#CC[n+]1ccccc1C#Cc1ccc(OC)cc1` [drawing 123, 1-prop-2-ynyl-2[(4-methoxyphenyl)-ethynyl]-pyridinium triflate], the “Normalized Percent Cleavage” value in data set [1] (1 μM) worked out at 7.5%; in data set [1] (10 μM) it was 71%; in data set [1] (50 μM) it was 97%; in data set [1] (100 μM), 100%. For the same molecule, the “lowest concentration producing DNA cleavage” value in data set [1] (ΦX174 DNA) came to 1 µM. The “DNA cleavage (in words)” value in data set [1] (ΦX174 DNA) is recorded as “most potent DNA cleavage activity”.

Turning to `C(#Cc1nc2ccccc2s1)c1ccccc1`, the “Stability in MeOH” value in data set [2] was over 24 h. For the same molecule, the “DNA Cleavage 1 mM” value in the data set with supercoiled plasmid DNA worked out at 5%.

For the molecule `C#CC[n+]1ccccc1C#Cc1ccccc1.O=S(=O)([O-])C(F)(F)F` [KeAZB009, N-propargyl-2-phenylethynylpyridiniumium triflate], in the data set on Supercoiled DNA, the “DNA cleavage (in words)” value is “more potent DNA cleavage than KeAZB002”.

Consider `C#CC[n+]1ccsc1C#Cc1ccccc1` [drawing 119], for which the “Stability in MeOH” value in data set [2] is “˜24 hr”. In the data set on supercoiled plasmid DNA, the “DNA Cleavage 100 μM” value amounted to 76% and the “DNA Cleavage 1 mM” value was determined as 100%.

Regarding `C#CC[n+]1ccccc1C#C[Si](C(C)C)(C(C)C)C(C)C` [1-prop-2-ynyl-2[(triisopropyl-silanyl)-ethynyl]-pyridinium triflate], the “Normalized Percent Cleavage” value was 0% in data set [1] (1 μM), 8.1% in data set [1] (10 μM), 49% in data set [1] (50 μM) and 77% in data set [1] (100 μM). Also, in data set [1] (ΦX174 DNA), the “DNA cleavage (in words)” value is given as “cleaves DNA less efficiently than all of the other 2-alkynyl substituted analogs”.

On to `C#CC[n+]1c(C#C[Si](C)(C)C)sc2ccccc21`, for which the “DNA Cleavage 1 mM” value in the data set with supercoiled plasmid DNA was 100%.

As to `C(#Cc1ccccc1)/C=C\C#Cc1ccccc1` [(Z)-1,6-diphenylhex-3-ene-1,5-diyne], in data set [3], the “t½ for the Bergman cyclization relative to rearrangement of 5a to 7a” value was “about 1000 fold”.

As to `C#CC[n+]1ccccc1C#Cc1ccccc1` [drawing 122, 1-prop-2-ynyl-2-phenylethynyl pyridinium triflate], the “Normalized Percent Cleavage” value is 0.4% in data set [1] (1 μM), 17% in data set [1] (10 μM), 83% in data set [1] (50 μM) and 87% in data set [1] (100 μM).

Regarding `C#CC[n+]1ccccc1C#C[Si](C)(C)C` [1-prop-2-ynyl-2[(trimethyl-silanyl)-ethynyl]-pyridinium triflate], the “Normalized Percent Cleavage” value is recorded as 9% in data set [1] (1 μM), 34% in data set [1] (10 μM), 73% in data set [1] (50 μM) and 89% in data set [1] (100 μM).

As to `C#CC[n+]1ccccc1C#Cc1ccc(OC)cc1` [drawing 130], the results for the IC50 with A549 cancer cells and in the data set on MCF-7 cancer cells were 2.7 µM and 8.7 µM, respectively.

In the case of `C#CC[n+]1ccccc1C#C` [drawing 132], the IC50 in the data set with A549 cancer cells is 21 µM; in the data set with MCF-7 cancer cells it was 63 µM.

Consider `C#CC[n+]1cccnc1C#Cc1ccccc1`, for which the “Stability in MeOH” value in data set [2] is over 24 h. Further, in the data set on supercoiled plasmid DNA, the “DNA Cleavage 100 μM” value stood at 14.4% and the “DNA Cleavage 1 mM” value was 43.3%.

As for `C[n+]1c(C#Cc2ccccc2)sc2ccccc21`, in data set [2], the “Stability in MeOH” value lay within 0.167 to 0.25 h. Also, the “DNA Cleavage 1 mM” value in the data set on supercoiled plasmid DNA was found to be 96%.

As for `C#CC[n+]1ccccc1C#C` [drawing 125, 1-prop-2-ynyl-2-ethynyl-pyridinium triflate], the “Normalized Percent Cleavage” value in data set [1] (1 μM) was 12%; in data set [1] (10 μM), 39%; in data set [1] (50 μM) it was 77%; in data set [1] (100 μM), 85%. Further, in the data set with A549 cancer cells (A549), the “growth inhibition of A549 cells (in words)” value is reported as “less activity”. The “growth inhibition of MCF-7 cells (in words)” value in the data set with MCF-7 cancer cells (MCF-7) is given as “less activity”.
